Laboratory results from the NIST ThermoML archive (doi:10.1016/j.jct.2014.09.004).
± gives the expanded uncertainty stated by the source.

Conditions: Liquid; pulse heating
With c1cc2c3c(cccc3c1)CC2 [acenaphthene] the Critical pressure was 3700 ± 110 kPa and the Critical temperature was 820 ± 8 K. Work on c1ccc2cc3ccccc3cc2c1 [anthracene] yielded a Critical pressure of 3170 ± 100 kPa and a Critical temperature of 894 ± 9 K. c1ccc2c(c1)Cc1ccccc1-2 [fluorene] gave a Critical pressure of 3180 ± 100 kPa and a Critical temperature of 836 ± 8 K. Work on c1ccc2c(c1)ccc1ccccc12 [phenanthrene] yielded a Critical pressure of 3250 ± 100 kPa and a Critical temperature of 893 ± 9 K. c1cc2ccc3cccc4ccc(c1)c2c34 [pyrene] showed a Critical pressure of 3030 ± 90 kPa and a Critical temperature of 974 ± 10 K.
